Measured values from ChEMBL document CHEMBL3045127, “Esterase inhibition by synergists in the western flower thrips Frankliniella occidentalis” (Pest Manag Sci, 2011).

What was measured:
[1] = Inhibition of Frankliniella occidentalis ACR (western flower thrips) total esterase activity
[2] = test system: Frankliniella occidentalis; assay: Insecticidal activity against Frankliniella occidentalis MLFOM (western flower thrips); type: functional
[3] = Inhibition of Frankliniella occidentalis FOR (western flower thrips) total esterase activity
[4] = test system: Frankliniella occidentalis; assay: Insecticidal activity against Frankliniella occidentalis ACR (western flower thrips); type: functional, organism-based
[5] = Inhibition of Frankliniella occidentalis MET (western flower thrips) total esterase activity
[6] = test system: Frankliniella occidentalis; assay: Insecticidal activity against Frankliniella occidentalis FOR (western flower thrips); type: functional, organism-based
[7] = test system: Frankliniella occidentalis; assay: Resistance ratio, LC50 for Frankliniella occidentalis MLFOM (western flower thrips) to LC50 for Frankliniella occidentalis MET; type: functional
[8] = Inhibition of Frankliniella occidentalis MLFOM (western flower thrips) total esterase activity
[9] = test system: Frankliniella occidentalis; assay: Insecticidal activity against Frankliniella occidentalis MET (western flower thrips); type: functional
[10] = test system: Frankliniella occidentalis; assay: Resistance ratio, LC50 for Frankliniella occidentalis MLFOM (western flower thrips) to LC50 for Frankliniella occidentalis FOR; type: functional
[11] = test system: Frankliniella occidentalis; assay: Resistance ratio, LC50 for Frankliniella occidentalis MLFOM (western flower thrips) to LC50 for Frankliniella occidentalis ACR; type: functional

| SMILES | IC50 [1] [µM] | LC50 [2] [mgAi/L] | IC50 [3] [µM] | IC50 ([4]; Frankliniella occidentalis, ACR) [µM] | IC50 [5] [µM] | IC50 ([6]; Frankliniella occidentalis, FOR) [µM] | RatioLC50 [7] | IC50 [8] [µM] | LC50 [9] [mgAi/L] | RatioLC50 [10] | LC50 [6] [mgAi/L] | RatioLC50 [11] | LC50 [4] [mgAi/L] |
| --- | --- | --- | --- | --- | --- | --- | --- | --- | --- | --- | --- | --- | --- |
| CNC(=O)Oc1cc(C)c(SC)c(C)c1 [METHIOCARB] | 2.71 | 15 | 2.93 | 2.71 | 1.98 | 2.93 | 41 | 1.92 | 620 |  |  |  |  |
| CCCCSP(=O)(SCCCC)SCCCC [S,S,S,-TRIBUTYLPHOSPHOROTRITHIOATE] | 0.45 |  | 0.51 |  | 0.52 |  |  | 0.46 |  |  |  |  |  |
| CCCCOCCOCCOCc1cc2c(cc1CCC)OCO2 [PIPERONYL BUTOXIDE] | 2670 |  | 1910 |  | 2160 |  |  | 2410 |  |  |  |  |  |
| CNC(=O)Oc1cccc(/N=C/N(C)C)c1 [FORMETANATE] |  | 765 |  |  |  |  |  |  |  | 26 | 20160 |  |  |
| CC1(C)[C@H](C(=O)O[C@H](C#N)c2cccc(Oc3ccccc3)c2)[C@@H]1/C=C\C(=O)OC(C(F)(F)F)C(F)(F)F [ACRINATHRIN] |  | 9 |  |  |  |  |  |  |  |  |  | 1430 | 12870 |
